Source: PMC10248867, “Receptor-like cytoplasmic kinase ScRIPK in sugarcane regulates disease resistance and drought tolerance in Arabidopsis” (Frontiers in Plant Science, 2023)

Legend:
Test in all cases: X-ray crystal structure, […] A
Format in all cases: binding
[1] = molecular target: T1, ScRIPK-KD (ScRIPK kinase domain) (Saccharum hybrid cultivar, UniProt A0ACD6BAX3, K58R); conditions: crystallised in 0.1 M HEPES pH 7.5, 4.3 M sodium chloride, 291 K; active site
T1 construct: gene NCGR_LOCUS634; kinase domain 72-378 of 425 aa; PRSF-duet vector, Ni-NTA purified from E. coli BL21(DE3); wild type autophosphorylated at T250, S253, T254; one kinase domain per asymmetric unit

[2] = molecular target: T2, ScRIPK-KD (ScRIPK kinase domain) (Saccharum hybrid cultivar, UniProt A0ACD6BAX3); conditions: Mg2+ bound; crystallised in 0.1 M HEPES pH 7.5, 40% v/v PEG 400, 291 K; active site
T2 construct: gene NCGR_LOCUS634; kinase domain 72-378 of 425 aa; PRSF-duet vector, Ni-NTA purified from E. coli BL21(DE3); wild type autophosphorylated at T250, S253, T254; one kinase domain per asymmetric unit

[3] = molecular target: T3, ScRIPK-KD (ScRIPK kinase domain) (Saccharum hybrid cultivar, UniProt A0ACD6BAX3, S187A/T188A); conditions: crystallised in 0.1 M HEPES pH 7.5, 4.3 M sodium chloride, 291 K; active site
T3 construct: gene NCGR_LOCUS634; kinase domain 72-378 of 425 aa; PRSF-duet vector, Ni-NTA purified from E. coli BL21(DE3); wild type autophosphorylated at T250, S253, T254; one kinase domain per asymmetric unit
T3 sequence (A0ACD6BAX3 entry or part of it S187A/T188A): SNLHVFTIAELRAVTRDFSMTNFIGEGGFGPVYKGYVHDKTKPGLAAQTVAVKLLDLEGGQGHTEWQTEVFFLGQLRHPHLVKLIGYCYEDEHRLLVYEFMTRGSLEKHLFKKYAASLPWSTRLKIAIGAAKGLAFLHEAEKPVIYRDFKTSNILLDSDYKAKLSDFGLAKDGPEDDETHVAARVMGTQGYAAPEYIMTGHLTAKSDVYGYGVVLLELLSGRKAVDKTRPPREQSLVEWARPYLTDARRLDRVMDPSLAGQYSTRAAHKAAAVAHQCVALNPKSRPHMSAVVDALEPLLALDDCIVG

T2 sequence (A0ACD6BAX3 entry or part of it): as the sequence (A0ACD6BAX3 entry or part of it S187A/T188A) above, with A182S, A183T counted along it
T1 sequence (A0ACD6BAX3 entry or part of it K58R): as the sequence (A0ACD6BAX3 entry or part of it S187A/T188A) above, with K53R, A182S, A183T counted along it

Compound	X-ray crystal structure, 1.68 A [1]	X-ray crystal structure, 2.10 A [2]	X-ray crystal structure, 1.95 A [3]
Nc1ncnc2c1ncn2[C@@H]1O[C@H](COP(=O)(O)OP(=O)(O)OP(=O)(O)O)[C@@H](O)[C@H]1O [ATP]	the mutant protein ScRIPK-KD K124R was purified and crystallized with ATP	The ScRIPK-ATP protein complex crystal was successfully obtained in the reservoir solution	–
Nc1ncnc2c1ncn2[C@@H]1O[C@H](COP(=O)(O)OP(=O)(O)O)[C@@H](O)[C@H]1O [ADP]	–	–	In the ScRIPK-KD S253A|T254A mutant structure, Y169 and E170–M172 formed a deep cavity
